According to US9149038B2, “4-amino-6-(heterocyclic)picolinates and 6-amino-2-(heterocyclic)pyrimidine-4-carboxylates and their use as herbicides” (Dow AgroSciences LLC, priority 2013, dated 2015):
Like-named read-outs stand apart in the source and are kept apart here.

Tested on: Wheat and Barley and weed species
Assay: Post-Emergent Test III: postemergent herbicidal activity in wheat and barley, visual rating after 21 d and probit GR20/GR50/GR80/GR90 (Tables 9-13)
Assay type: in vivo
Settings: for GR50 ALOMY / GR50 APESV / GR50 KCHSC / GR50 LOLSS / GR50 SETVI: growth reduction of 50%; for GR50 ALOMY / GR80 ALOMY / GR90 ALOMY / GR50 APESV / GR80 APESV / GR90 APESV / GR20 HORVS / GR50 KCHSC / GR80 KCHSC / GR90 KCHSC / GR50 LOLSS / GR80 LOLSS / GR90 LOLSS / GR50 SETVI / GR80 SETVI / GR90 SETVI / GR20 TRZAS: probit analysis; for GR80 ALOMY / GR80 APESV / GR80 KCHSC / GR80 LOLSS / GR80 SETVI: growth reduction of 80%; for GR90 ALOMY / GR90 APESV / GR90 KCHSC / GR90 LOLSS / GR90 SETVI: growth reduction of 90%; for GR20 HORVS / GR20 TRZAS: growth reduction of 20%; for pest or weed control at 35 g/ha / pest or weed control at 70 g/ha / pest or weed control at 140 g/ha: post-emergence, 504 h; for Visual Growth Reduction (%) 21 Days After Application KCHSC / GR50 KCHSC / GR80 KCHSC / GR90 KCHSC: KCHSC kochia (Kochia scoparia)
In short: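 Greenhouse plants (~18/17 °C, 14 h photoperiod) at second–third true leaf stage sprayed at 187 L/ha with a high rate and ½× to 1/16× serial dilutions. Visual injury 0–100% versus solvent-blank controls scored at 21 d; GR20, GR50, GR80 and GR90 derived by probit analysis across rates.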

[1] = ALOMY black-grass (Alopecurus myosuroides)
[2] = APESV bentgrass (Apera spica-venti)
[3] = Hordeum vulgare, HORVS barley, spring (crop), 35 g ai/ha, read-out: Visual Growth Reduction (%) 21 Days After Application HORVS
[4] = Hordeum vulgare, HORVS barley, spring (crop), 70 g ai/ha, read-out: Visual Growth Reduction (%) 21 Days After Application HORVS
[5] = Hordeum vulgare, HORVS barley, spring (crop), 140 g ai/ha, read-out: Visual Growth Reduction (%) 21 Days After Application HORVS
[6] = SETVI green foxtail (Setaria viridis)
[7] = Triticum aestivum, TRZAS wheat, spring (crop), 35 g ai/ha, read-out: Visual Growth Reduction (%) 21 Days After Application TRZAS
[8] = Triticum aestivum, TRZAS wheat, spring (crop), 70 g ai/ha, read-out: Visual Growth Reduction (%) 21 Days After Application TRZAS
[9] = Triticum aestivum, TRZAS wheat, spring (crop), 140 g ai/ha, read-out: Visual Growth Reduction (%) 21 Days After Application TRZAS
[10] = ALOMY black-grass (Alopecurus myosuroides), 35 g ai/ha, read-out: Visual Growth Reduction (%) 21 Days After Application ALOMY
[11] = ALOMY black-grass (Alopecurus myosuroides), 70 g ai/ha, read-out: Visual Growth Reduction (%) 21 Days After Application ALOMY
[12] = ALOMY black-grass (Alopecurus myosuroides), 140 g ai/ha, read-out: Visual Growth Reduction (%) 21 Days After Application ALOMY
[13] = APESV bentgrass (Apera spica-venti), 35 g ai/ha, read-out: Visual Growth Reduction (%) 21 Days After Application APESV
[14] = APESV bentgrass (Apera spica-venti), 70 g ai/ha, read-out: Visual Growth Reduction (%) 21 Days After Application APESV
[15] = APESV bentgrass (Apera spica-venti), 140 g ai/ha, read-out: Visual Growth Reduction (%) 21 Days After Application APESV
[16] = LOLSS ryegrass, 35 g ai/ha, read-out: Visual Growth Reduction (%) 21 Days After Application LOLSS
[17] = LOLSS ryegrass, 70 g ai/ha, read-out: Visual Growth Reduction (%) 21 Days After Application LOLSS
[18] = LOLSS ryegrass, 140 g ai/ha, read-out: Visual Growth Reduction (%) 21 Days After Application LOLSS
[19] = SETVI green foxtail (Setaria viridis), 35 g ai/ha, read-out: Visual Growth Reduction (%) 21 Days After Application SETVI
[20] = SETVI green foxtail (Setaria viridis), 70 g ai/ha, read-out: Visual Growth Reduction (%) 21 Days After Application SETVI
[21] = SETVI green foxtail (Setaria viridis), 140 g ai/ha, read-out: Visual Growth Reduction (%) 21 Days After Application SETVI

Compound | GR50 ALOMY [1] | GR80 ALOMY [1] | GR90 ALOMY [1] | GR50 APESV [2] | GR80 APESV [2] | GR90 APESV [2] | GR20 HORVS (HORVS barley, spring (crop)) | pest or weed control at 35 g/ha [3] | pest or weed control at 70 g/ha [4] | pest or weed control at 140 g/ha [5] | Visual Growth Reduction (%) 21 Days After Application KCHSC (35 g ai/ha) | Visual Growth Reduction (%) 21 Days After Application KCHSC (70 g ai/ha) | Visual Growth Reduction (%) 21 Days After Application KCHSC (140 g ai/ha) | GR50 KCHSC | GR80 KCHSC | GR90 KCHSC | GR50 LOLSS (LOLSS ryegrass) | GR80 LOLSS (LOLSS ryegrass) | GR90 LOLSS (LOLSS ryegrass) | GR50 SETVI [6] | further results
Nc1cc(-c2cc3c(cc2F)OC(F)(F)O3)nc(C(=O)O)c1Cl [Compound 42] | 11 g ai/ha | 25 g ai/ha | 40 g ai/ha | 22 g ai/ha | 81 g ai/ha | >140 g ai/ha | 0.50 g ai/ha | 75 to 84% | 85 to 94% | 85 to 94% | E (45-59) | E (45-59) | D (60-74) | 54 g ai/ha | >140 g ai/ha | >140 g ai/ha | 44 g ai/ha | >140 g ai/ha | >140 g ai/ha | 10 g ai/ha | GR80 SETVI [6]: 46 g ai/ha; GR90 SETVI [6]: >140 g ai/ha; GR20 TRZAS (TRZAS wheat, spring (crop)): 0.20 g ai/ha; pest or weed control at 35 g/ha [7]: 75 to 84%; pest or weed control at 70 g/ha [8]: 75 to 84%; pest or weed control at 140 g/ha [9]: 85 to 94%; pest or weed control at 35 g/ha [10]: 85 to 94%; pest or weed control at 70 g/ha [11]: 95 to 100%; pest or weed control at 140 g/ha [12]: 95 to 100%; pest or weed control at 35 g/ha [13]: 60 to 74%; pest or weed control at 70 g/ha [14]: 75 to 84%; pest or weed control at 140 g/ha [15]: 85 to 94%; pest or weed control at 35 g/ha [16]: 45 to 59%; pest or weed control at 70 g/ha [17]: 60 to 74%; pest or weed control at 140 g/ha [18]: 60 to 74%; pest or weed control at 35 g/ha [19]: 75 to 84%; pest or weed control at 70 g/ha [20]: 85 to 94%; pest or weed control at 140 g/ha [21]: 95 to 100%
COC(=O)c1nc(-c2c(F)cc3c(c2F)OC(F)(F)O3)cc(N)c1Cl [Compound 46] | 18 g ai/ha | 35 g ai/ha | 49 g ai/ha | 88 g ai/ha | >140 g ai/ha | >140 g ai/ha | 8 g ai/ha | 45 to 59% | 60 to 74% | 85 to 94% | B (85-94) | A (95-100) | A (95-100) | 1 g ai/ha | 7 g ai/ha | 17 g ai/ha | 91 g ai/ha | >140 g ai/ha | >140 g ai/ha | 106 g ai/ha | GR80 SETVI [6]: >140 g ai/ha; GR90 SETVI [6]: >140 g ai/ha; GR20 TRZAS (TRZAS wheat, spring (crop)): 10 g ai/ha; pest or weed control at 35 g/ha [7]: 60 to 74%; pest or weed control at 70 g/ha [8]: 75 to 84%; pest or weed control at 140 g/ha [9]: 85 to 94%; pest or weed control at 35 g/ha [10]: 60 to 74%; pest or weed control at 70 g/ha [11]: 95 to 100%; pest or weed control at 140 g/ha [12]: 95 to 100%; pest or weed control at 35 g/ha [13]: 0 to 29%; pest or weed control at 70 g/ha [14]: 45 to 59%; pest or weed control at 140 g/ha [15]: 60 to 74%; pest or weed control at 35 g/ha [16]: 0 to 29%; pest or weed control at 70 g/ha [17]: 45 to 59%; pest or weed control at 140 g/ha [18]: 60 to 74%; pest or weed control at 35 g/ha [19]: 0 to 29%; pest or weed control at 70 g/ha [20]: 30 to 44%; pest or weed control at 140 g/ha [21]: 60 to 74%
